23 compounds from patent publication US11446287B2, “Compounds and methods for EP300 or CBP modulation and indications therefor” (Opna Immuno-Oncology SA, priority 2019, dated 2022) can be followed below.

The structures appear in SMILES notation.

In general, IC50 refers to the concentration at which inhibition is half-maximal.

This assay deals with T1, Recombinant human EP300 containing the bromodomain (EP300-BD (1040-1161)) (Homo sapiens, UniProt Q09472).
T1 construct: Recombinant human EP300 bromodomain (EP300-BD (1040-1161)); made in house; host or cells: E. coli BL21-CodonPlus (DE3), modified pET vector
T1 sequence (Q09472 1040-1161): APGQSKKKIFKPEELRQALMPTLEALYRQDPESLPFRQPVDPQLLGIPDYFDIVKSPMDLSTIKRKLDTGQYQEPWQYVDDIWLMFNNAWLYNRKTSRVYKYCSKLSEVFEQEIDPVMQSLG
Kind of assay: EP300 Alphascreen binding assay. Here is the method:
EP300 Alphascreen Binding Assay
Binding of compounds of Formula (I) with EP300 was assessed using Alphascreen™ binding assay. The inhibition of the interaction between the EP300 bromodomain and its acetylated target protein was measured quantitatively using recombinant EP300 protein, an acetylated Histone 3 peptide and AlphaScreen™ technology. In absence of inhibition of the EP300 protein bound to AlphaScreen™ nickel chelate acceptor beads can interact with the acetylated Histone 3 peptide which is immobilized by the AlphaScreen™ Streptavidin coated beads. This interaction brings donor and acceptor beads in proximity. The close proximity allows the singlet oxygen produced by laser excitation of the donor beads to reach the acceptor beads and generate a luminescence signal. EP300 inhibitors result in a decrease in the proximity signal through an inhibition of the EP300—acetylated peptide interaction.
Recombinant human EP300 containing the bromodomain (EP300-BD (1040-1161)) was prepared and purified as described in protein expression and purification session. The peptide is human Histone H345-64K56Ac-Biotin (Anaspec CA, USA).
Protocol for EP300 assay: All components were prepared in buffer composed of 50 mM HEPES pH 7.5, 50 mM NaCl, 0.01% BSA, 0.01% Triton X-100, 2 mM DTT. Test compounds and DMSO vehicle were diluted 1:50 in buffer and a 4 μL volume is transferred to an Alphaplate. 5.5 μL of EP300 protein and 5.5 μL of peptide were added to wells containing 4 μL of various concentrations of test compounds of Formula (I) or DMSO vehicle in an Alphaplate (PerkinElmer GA, USA) and incubated for 1 hour at room temperature. 5 μL donor and acceptor bead mixture was then added with final concentrations of 7.5 μg/ml. 60 minutes after bead addition, Alpha signal is read on the Envision spectrometer (λEx 680 nm, λEm 520-620 nm). Final concentrations of bromodomain proteins and peptide are as shown below.
All data were normalized to the mean of 16 high and 16 low control wells on each plate. A four parameter curve fit of the following formula was then applied: Y=A+((B−A)/(1+((C/x)^D))) Where ‘A’ is the minimum, ‘B’ is the maximum, ‘C’ is the IC50 and ‘D’ is the Hill slope. Protein Expression and Purification
Recombinant human EP300 bromodomain (EP300-BD (1040-1161)) was expressed in E. coli cells (in a modified pET vector) with an N-terminal six-His tag and purified using a combination of both IMAC (Ni-affinity) and size exclusion chromatography steps.
Recombinant EP300 protein was expressed using the E. coli strain BL21-CodonPlus (DE3) (Agilent Technologies CA, USA). Cells were grown in Terrific Broth (TB) media to an OD600 of 0.7 at 37° C. at which temperature was reduced to 18° C., protein was induced with 1.0 mM isopropyl-β-D-thiogalactopyranoside (“IPTG”) for 20 hours and harvested by centrifugation at 8500×g for 20 minutes. Cells were re-suspended in 0.1M K2PO4 pH 8.0, 250 mM NaCl, 10% Glycerol, 0.75% NP-40, 25 mM Imidazole, with 0.2 mg/ml Lysozyme, 0.2 mM phenylmethanesulfonyl fluoride (“PMSF”), 25 μg/ml DNase I, incubated on ice for 30 minutes and lysed with a cell disruptor (MicroFluidics MA, USA). The lysate was clarified by centrifugation at 20,000×g for 1 hour. The protein was captured with Ni-NTA resin (Life Technologies, USA). Contaminating proteins were washed off with 50 mM HEPES pH 7.5, 500 mM NaCl, and 5% Glycerol. Following 3× wash steps, protein was eluted step wise using 10, 25, 50, 100, 150, and 250 mM Imidazole in 50 mM HEPES pH 7.5, 500 mM NaCl, and 5% glycerol. The protein was further purified using a size exclusion column (26/600 Superdex 200, GE Biosciences NJ, USA) in 10 mM HEPES pH 7.5, […].
For orientation: Alpha assays give light when donor and acceptor beads are brought close together.

Consider `Cc1ccc(S(=O)(=O)n2cc(-c3ccc(C(=O)O)cc3)c3cc(-c4c(C)noc4C)cnc32)cc1` [P-0006, 4-(5-(3,5-dimethylisoxazol-4-yl)-1-tosyl-1H-pyrrolo[2,3-b]pyridin-3-yl)benzoic acid], for which the IC50 lay in the range of 1000 to 8000 nM.

For the compound `Cc1noc(C)c1-c1cnc2c(c1)c(-c1ccc(C(=O)O)cc1)cn2C(c1ccccn1)C1CC1` (centres unmarked) [P-0007, 4-(1-(cyclopropyl(pyridin-2-yl)methyl)-5-(3,5-dimethylisoxazol-4-yl)-1H-pyrrolo[2,3-b]pyridin-3-yl)benzoic acid], the IC50 was 0.1 to 1000 nM.

`Cc1noc(C)c1-c1cnc2c(c1)c(-c1ccc(C(=O)O)cc1)cn2C(c1ccccn1)C1CCC1` (centres unmarked) [P-0008, 4-(1-(cyclobutyl(pyridin-2-yl)methyl)-5-(3,5-dimethylisoxazol-4-yl)-1H-pyrrolo[2,3-b]pyridin-3-yl)benzoic acid]: the IC50 fell in the range of 0.1 to 1000 nM.

Turning to `Cc1noc(C)c1-c1cnc2c(CC3CCC3)cn(-c3ccc(C(=O)O)cn3)c2c1` [P-0009, 6-(3-(cyclobutylmethyl)-6-(3,5-dimethylisoxazol-4-yl)-1H-pyrrolo[3,2-b]pyridin-1-yl)nicotinic acid], the 50% inhibitory concentration (IC50) was 0.1 to 1000 nM.

Consider `Cc1noc(C)c1-c1cnc2c(CC3CC3)cn(-c3ccc(C(=O)O)cn3)c2c1` [P-0010, 6-(3-(cyclopropylmethyl)-6-(3,5-dimethylisoxazol-4-yl)-1H-pyrrolo[3,2-b]pyridin-1-yl)nicotinic acid], for which the IC50 was 0.1 to 1000 nM.

For the compound `Cc1noc(C)c1-c1cnc2c(Cc3ccccn3)cn(-c3ccc(C(=O)O)cn3)c2c1` [P-0011, 6-(6-(3,5-dimethylisoxazol-4-yl)-3-(pyridin-2-ylmethyl)-1H-pyrrolo[3,2-b]pyridin-1-yl)nicotinic acid], the IC50 was in the range of 0.1 to 1000 nM.

As for `Cc1noc(C)c1-c1cnc2c(c1)c(-c1ccc(C(=O)O)cc1)cn2C(c1ccccn1)c1ccccn1` [P-0012, 4-(1-(di(pyridin-2-yl)methyl)-5-(3,5-dimethylisoxazol-4-yl)-1H-pyrrolo[2,3-b]pyridin-3-yl)benzoic acid], the IC50 lay within 0.1 to 1000 nM.

On to `Cc1noc(C)c1-c1cnc2c(c1)c(-c1ccc(C(=O)O)cc1F)cn2[C@@H](C)c1ccccn1` [P-0097, (S)-4-(5-(3,5-dimethylisoxazol-4-yl)-1-(1-(pyridin-2-yl)ethyl)-1H-pyrrolo[2,3-b]pyridin-3-yl)-3-fluorobenzoic acid], for which the IC50 lay within 0.1 to 1000 nM.

For `COc1ccc(C(=O)O)cc1-n1cc(CC2CCC2)c2ncc(-c3c(C)noc3C)cc21` [P-0098, 3-(3-(cyclobutylmethyl)-6-(3,5-dimethylisoxazol-4-yl)-1H-pyrrolo[3,2-b]pyridin-1-yl)-4-methoxybenzoic acid], the IC50 was in the range of 0.1 to 1000 nM.

`Cc1noc(C)c1-c1cnc2c(C(=O)c3cccc(OC(F)F)c3)cn(-c3ccnc(C(=O)O)c3)c2c1` [P-0099, 4-(3-(3-(difluoromethoxy)benzoyl)-6-(3,5-dimethylisoxazol-4-yl)-1H-pyrrolo[3,2-b]pyridin-1-yl)picolinic acid]: the half-inhibitory concentration (IC50) was in the range of 0.1 to 1000 nM.

As to `Cc1noc(C)c1-c1cnc2c(Cc3cccc(OC(F)F)c3)cn(-c3ccnc(C(=O)O)c3)c2c1` [P-0100, 4-(3-(3-(difluoromethoxy)benzyl)-6-(3,5-dimethylisoxazol-4-yl)-1H-pyrrolo[3,2-b]pyridin-1-yl)picolinic acid], the IC50 was in the range of 0.1 to 1000 nM.

As for `Cc1noc(C)c1-c1cnc2c(c1)c(-c1cccc(C(=O)O)c1)cn2CC1CC(F)(F)C1` [P-0101, 3-(1-((3,3-difluorocyclobutyl)methyl)-5-(3,5-dimethylisoxazol-4-yl)-1H-pyrrolo[2,3-b]pyridin-3-yl)benzoic acid], the IC50 fell in the range of 0.1 to 1000 nM.

Consider `Cc1noc(C)c1-c1cnc2c(c1)c(-c1cccc(C(=O)O)c1)cn2CC1(C)COC1` [P-0102, 3-(5-(3,5-dimethylisoxazol-4-yl)-1-((3-methyloxetan-3-yl)methyl)-1H-pyrrolo[2,3-b]pyridin-3-yl)benzoic acid], for which the IC50 fell in the range of 1000 to 8000 nM.

For `COc1cc(C(=O)O)cc(OC)c1-c1cn([C@@H](C)c2ccccn2)c2ncc(-c3c(C)noc3C)cc12` [P-0103, (S)-4-(5-(3,5-dimethylisoxazol-4-yl)-1-(1-(pyridin-2-yl)ethyl)-1H-pyrrolo[2,3-b]pyridin-3-yl)-3,5-dimethoxybenzoic acid], the IC50 lay within 0.1 to 1000 nM.

Regarding `Cc1noc(C)c1-c1cnc2c(CC3CCC3)cn(-c3ccc(C#N)c(C(=O)O)c3)c2c1` [P-0104, 2-cyano-5-(3-(cyclobutylmethyl)-6-(3,5-dimethylisoxazol-4-yl)-1H-pyrrolo[3,2-b]pyridin-1-yl)benzoic acid], the IC50 was 0.1 to 1000 nM.

Turning to `Cc1noc(C)c1-c1cnc2c(CC3CCC3)cn(-c3ccc(C(=O)O)c(C#N)c3)c2c1` [P-0105, 2-cyano-4-(3-(cyclobutylmethyl)-6-(3,5-dimethylisoxazol-4-yl)-1H-pyrrolo[3,2-b]pyridin-1-yl)benzoic acid], the half-inhibitory concentration (IC50) lay within 0.1 to 1000 nM.

Consider `Cc1noc(C)c1-c1cnc2c(c1)c(-c1cncc(C(=O)O)n1)cn2[C@@H](C)c1ccccn1` [P-0106, (S)-6-(5-(3,5-dimethylisoxazol-4-yl)-1-(1-(pyridin-2-yl)ethyl)-1H-pyrrolo[2,3-b]pyridin-3-yl)pyrazine-2-carboxylic acid], for which the IC50 is 1000 to 8000 nM.

As to `Cc1noc(C)c1-c1cnc2c(c1)c(-c1nccc(C(=O)O)n1)cn2[C@@H](C)c1ccccn1` [P-0107, (S)-2-(5-(3,5-dimethylisoxazol-4-yl)-1-(1-(pyridin-2-yl)ethyl)-1H-pyrrolo[2,3-b]pyridin-3-yl)pyrimidine-4-carboxylic acid], the IC50 fell in the range of 1000 to 8000 nM.

Regarding `CCOc1cc(C(=O)O)cc(F)c1-n1cc(CC2CCC2)c2ncc(-c3c(C)noc3C)cc21` [P-0108, 4-(3-(cyclobutylmethyl)-6-(3,5-dimethylisoxazol-4-yl)-1H-pyrrolo[3,2-b]pyridin-1-yl)-3-ethoxy-5-fluorobenzoic acid], the IC50 lay within 0.1 to 1000 nM.

For the compound `CCOc1cc(C(=O)O)cc(OCC)c1-n1cc(CC2CCC2)c2ncc(-c3c(C)noc3C)cc21` [P-0109, 4-(3-(cyclobutylmethyl)-6-(3,5-dimethylisoxazol-4-yl)-1H-pyrrolo[3,2-b]pyridin-1-yl)-3,5-diethoxybenzoic acid], the half-maximal inhibitory concentration (IC50) lay within 0.1 to 1000 nM.

For `Cc1noc(C)c1-c1cnc2c(CC3CCC3)cn(-c3ccc(C(=O)O)c4ccoc34)c2c1` [P-0110, 7-(3-(cyclobutylmethyl)-6-(3,5-dimethylisoxazol-4-yl)-1H-pyrrolo[3,2-b]pyridin-1-yl)benzofuran-4-carboxylic acid], the IC50 was in the range of 0.1 to 1000 nM.

For the compound `Cc1noc(C)c1-c1cnc2c(CC3CCC3)cn(-c3c(OC(C)C)cc(C(=O)O)cc3OC(C)C)c2c1` [P-0111, 4-(3-(cyclobutylmethyl)-6-(3,5-dimethylisoxazol-4-yl)-1H-pyrrolo[3,2-b]pyridin-1-yl)-3,5-diisopropoxybenzoic acid], the concentration for half-maximal inhibition (IC50) was in the range of 0.1 to 1000 nM.

Consider `Cc1noc(C)c1-c1cnc2c(c1)c(-c1ccc(C(=O)O)cc1OC(C)C)cn2[C@@H](C)c1ccccn1` [P-0112, (S)-4-(5-(3,5-dimethylisoxazol-4-yl)-1-(1-(pyridin-2-yl)ethyl)-1H-pyrrolo[2,3-b]pyridin-3-yl)-3-isopropoxybenzoic acid], for which the IC50 lay within 0.1 to 1000 nM.
